Source: patent US20230121952A1 (INFLAZOME LIMITED, priority 2020, published 2023)

How the values were obtained:
[1] = target: T1, NLRP3 (Homo sapiens, UniProt Q96P20); experiment: THP-1 cells pyroptosis assay; type: cell-based; set-up: Seed THP-1 cells (25,000 cells/well) containing 1.0 μg/ml LPS; host or cells: THP-1 cells, LPS-primed, nigericin-stimulated; details: 1.0 μg/ml LPS, compound 3 hrs, nigericin 5 μM 1 hr, resazurin readout
Description: THP-1 cells (ATCC #TIB-202) were grown in RPMI containing L-glutamine (Gibco #11835) supplemented with 1 mM sodium pyruvate (Sigma #S8636) and penicillin (100 units/ml)/streptomycin (0.1 mg/ml) (Sigma #P4333) in 10% Fetal Bovine Serum (FBS) (Sigma #F0804). The cells were routinely passaged and grown to confluency (˜10^6 cells/ml). On the day of the experiment, THP-1 cells were harvested and resuspended into RPMI medium (without FBS). The cells were then counted and viability (>90%) checked by Trypan blue (Sigma #T8154). Appropriate dilutions were made to give a concentration of 625,000 cells/ml. To this diluted cell solution was added LPS (Sigma #L4524) to give a […] Final Assay Concentration (FAC). 40 μl of the final preparation was aliquoted into each well of a 96-well plate. The plate thus prepared was used for compound screening.
The following method step-by-step assay was followed for compound screening. • 1. Seed THP-1 cells (25,000 cells/well) containing 1.0 μg/ml LPS in 40 μl of RPMI medium (without FBS) in 96-well, black walled, clear bottom cell culture plates coated with poly-D-lysine (VWR #734-0317) • 2. Add 5 μl compound (8 points half-log dilution, with 10 μM top dose) or vehicle (DMSO 0.1% FAC) to the appropriate wells • 3. Incubate for 3 hrs at 37° C., 5% CO2 • 4. Add 5 μl nigericin (Sigma #N7143) (FAC 5 μM) to all wells • 5. Incubate for 1 hr at 37° C., 5% CO2 • 6. At the end of the incubation period, spin plates at 300×g for 3 mins and remove supernatant • 7. Then add 50 μl of resazurin (Sigma #R7017) (FAC 100 μM resazurin in RPMI medium without FBS) and incubate plates for a further 1-2 hrs at 37° C. and 5% CO2 • 8. Plates were read in an Envision reader at Ex 560 nm and Em 590 nm • 9. IC50 data is fitted to a non-linear regression equation (log inhibitor vs response-variable slope 4-parameters) 96-well Plate Map

[2] = target: T1, NLRP3; experiment: Human whole blood IL-1β release assay; type: cell-based; set-up: Human whole blood in Li-heparin tubes was obtained from healthy donors; from tissue; host or cells: human whole blood from healthy volunteer donors, LPS-primed, nigericin-stimulated; details: 1 μg/ml LPS, compound 3 hrs, nigericin 10 μM 1 hr, IL-1β in supernatant (AlphaLisa), read-out: HWB IC50
Description: For systemic delivery, the ability to inhibit NLRP3 when the compounds are present within the bloodstream is of great importance. For this reason, the NLRP3 inhibitory activity of a number of compounds in human whole blood was investigated in accordance with the following protocol.
Human whole blood in Li-heparin tubes was obtained from healthy donors from a volunteer donor panel. • 1. Plate out 80 μl of whole blood containing 1 μg/ml of LPS in 96-well, clear bottom cell culture plate (Corning #3585) • 2. Add 10 μl compound (8 points half-log dilution with 10 μM top dose) or vehicle (DMSO 0.1% FAC) to the appropriate wells • 3. Incubate for 3 hrs at 37° C., 5% CO2 • 4. Add 10 μl nigericin (Sigma #N7143) (10 μM FAC) to all wells • 5. Incubate for 1 hr at 37° C., 5% CO2 • 6. At the end of the incubation period, spin plates at 300×g for 5 mins to pellet cells and remove 20 μl of supernatant and add to 96-well v-bottom plates for IL-1β analysis (note: these plates containing the supernatants can be stored at −80° C. to be analysed at a later date) • 7. IL-1β was measured according to the manufacturer protocol (Perkin Elmer-AlphaLisa IL-1 Kit AL220F-5000) • 8. IC50 data is fitted to a non-linear regression equation (log inhibitor vs response-variable slope 4-parameters)

T1 sequence (Q96P20 whole entry): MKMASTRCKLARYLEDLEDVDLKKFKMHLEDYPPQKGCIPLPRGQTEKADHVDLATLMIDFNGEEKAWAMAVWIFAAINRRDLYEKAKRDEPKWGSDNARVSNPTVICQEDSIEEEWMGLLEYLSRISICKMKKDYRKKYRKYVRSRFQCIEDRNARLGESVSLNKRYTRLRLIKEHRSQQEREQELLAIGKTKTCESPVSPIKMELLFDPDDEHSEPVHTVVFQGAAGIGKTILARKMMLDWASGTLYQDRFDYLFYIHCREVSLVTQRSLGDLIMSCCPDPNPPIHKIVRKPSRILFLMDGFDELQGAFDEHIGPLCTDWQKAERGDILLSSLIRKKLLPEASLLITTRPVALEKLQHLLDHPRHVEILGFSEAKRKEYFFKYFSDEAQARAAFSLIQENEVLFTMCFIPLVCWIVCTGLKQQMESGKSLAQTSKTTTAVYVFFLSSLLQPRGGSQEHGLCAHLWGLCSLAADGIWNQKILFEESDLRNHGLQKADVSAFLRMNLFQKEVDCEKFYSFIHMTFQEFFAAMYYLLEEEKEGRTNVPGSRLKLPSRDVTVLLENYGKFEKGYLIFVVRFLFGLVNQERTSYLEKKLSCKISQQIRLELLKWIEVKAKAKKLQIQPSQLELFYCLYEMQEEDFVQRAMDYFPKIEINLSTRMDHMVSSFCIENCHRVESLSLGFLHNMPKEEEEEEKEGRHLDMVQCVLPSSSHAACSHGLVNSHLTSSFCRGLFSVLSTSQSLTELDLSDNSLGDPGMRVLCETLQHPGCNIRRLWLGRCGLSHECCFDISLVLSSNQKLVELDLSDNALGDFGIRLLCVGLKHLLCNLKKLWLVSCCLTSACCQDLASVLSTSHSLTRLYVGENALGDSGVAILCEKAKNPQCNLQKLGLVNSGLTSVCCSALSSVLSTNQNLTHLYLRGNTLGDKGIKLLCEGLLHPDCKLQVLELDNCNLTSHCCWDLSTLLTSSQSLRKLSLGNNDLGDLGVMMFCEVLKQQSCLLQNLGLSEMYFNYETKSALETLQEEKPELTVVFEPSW

| SMILES | IC50 [1] | IC50 [2] |
| --- | --- | --- |
| CN1CCCOc2cc(ccn2)-c2ccc3c(c2Nc2nnc([nH]2)S(=O)(=O)N2CCC1CC2)CCC3 [Example 1, 26-methyl-22-oxa-2λ^6-thia-1,4,5,7,20,26,33-heptazahexacyclo-[25.2.2.1^3,6.1^17,21.0^8,16.0^9,13]tritriaconta-3,6(33),8,13,15,17,19,21(32)-octaene 2,2-dioxide] | ≤ 5 µM | ≤ 5 µM |
| O=S1(=O)c2nnc([nH]2)Nc2c(ccc3c2CCC3)-c2ccnc(c2)OCCCN2CCC3(C2)CN1C3 [Example 2, 26-oxa-16λ^6-thia-11,13,14,17,22,28,34-heptazaheptacyclo-[25.3.1.1^12,15.1^17,19.1^19,22.0^2,10.0^5,9]tetratriaconta-1(30),2,4,9,12,14,27(31),28-octaene 16,16-dioxide] | ≤ 0.1 µM | ≤ 0.1 µM |
| O=S1(=O)c2nnc([nH]2)Nc2c(ccc3c2CCC3)-c2ccnc(c2)OCCN2CCC3(C2)CN1C3 [Example 3, 25-oxa-16λ^6-thia-11,13,14,17,22,27,33-heptazaheptacyclo-[24.3.1.1^12,15.1^17,19.1^19,22.0^2,10.0^5,9]tritriaconta-1(29),2,4,9,12,14,26(30),27-octaene 16,16-dioxide] | ≤ 0.1 µM | ≤ 0.5 µM |
| Cc1cc2c(c3c1-c1ccnc(c1)OCCCN1CCC4(C1)CN(C4)S(=O)(=O)c1nnc([nH]1)N3)CCC2 [Example 4, 3-methyl-26-oxa-16λ^6-thia-11,13,14,17,22,28,34-heptazaheptacyclo-[25.3.1.1^12,15.1^17,19.1^19,22.0^2,10.0^5,9]tetratriaconta-1(30),2,4,9,12,14,27(31),28-octaene 16,16-dioxide] | ≤ 0.1 µM | ≤ 0.5 µM |
| CC1(C)COc2cc(ccn2)-c2ccc3c(c2Nc2nnc([nH]2)S(=O)(=O)c2ccn1n2)CCC3 [Example 6, 21,21-dimethyl-23-oxa-16λ^6-thia-11,13,14,20,25,29,30-heptazahexacyclo-[22.3.1.1^12,15.1^17,20.0^2,10.0^5,9]triaconta-1(27),2,4,9,12(30),14,17(29),18,24(28),25-decaene 16,16-dioxide] | ≤ 5 µM | – |
| CC1(C)CCOc2cc(ccn2)-c2ccc3c(c2Nc2nnc([nH]2)S(=O)(=O)c2ccn1n2)CCC3 [Example 7, 21,21-dimethyl-24-oxa-16λ^6-thia-11,13,14,20,26,30,31-heptazahexacyclo-[23.3.1.1^12,15.1^17,20.0^2,10.0^5,9]hentriaconta-1(28),2,4,9,12,14,17(30),18,25(29),26-decaene 16,16-dioxide] | ≤ 10 µM | – |
| CN1CCCCOc2cc(ccn2)-c2ccc3c(c2Nc2nnc([nH]2)S(=O)(=O)N2CCC1CC2)CCC3 [Example 13, 27-methyl-22-oxa-2λ^6-thia-1,4,5,7,20,27,34-heptaazahexacyclo-[26.2.2.1^3,6.1^17,21.0^8,16.0^9,13]tetratriaconta-3,5,8,13,15,17,19,21(33)-octaene-2,2-dioxide] | ≤ 1 µM | – |
| CN1CCOc2cc(ccn2)-c2ccc3c(c2Nc2nnc([nH]2)S(=O)(=O)N2CC[C@H](C1)C2)CCC3 [Example 14, (20R)-22-methyl-25-oxa-16λ^6-thia-11,13,14,17,22,27,32-heptaazahexacyclo[24.3.1.1^12,15.1^17,20.0^2,10.0^5,9]dotriaconta-1(29),2,4,9,12,14,26(30),27-octaene-16,16-dioxide] | ≤ 0.5 µM | – |
| O=S1(=O)c2nnc([nH]2)Nc2c(ccc3c2CCC3)-c2ccnc(c2)OCCCN2CCC23CCN1CC3 [Example 15, 8-oxa-28λ^6-thia-4,10,23,25,26,29,34-heptaazaheptacyclo-[27.2.2.1^9,13.1^24,27.0^1,4.0^14,22.0^17,21]pentatriaconta-9(35),10,12,14,16,21,24,26-octaene-28,28-dioxide] | ≤ 0.1 µM | – |
| CN(C)CC12CCCCOc3cc(ccn3)-c3ccc4c(c3Nc3nnc([nH]3)S(=O)(=O)N(C1)C2)CCC4 [Example 16, 19-[(dimethylamino)methyl]-24-oxa-16λ^6-thia-11,13,14,17,26,31-hexaazahexacyclo[23.3.1.1^12,15.1^17,19.0^2,10.0^5,9]hentriaconta-1(28),2,4,9,12,14,25(29),26-octaene-16,16-dioxide] | ≤ 1 µM | – |
| CN1CCCOc2cc(ccn2)-c2ccc3c(c2Nc2nnc([nH]2)S(=O)(=O)N2CC[C@H]1C2)CCC3 [Example 17, (20S)-21-methyl-25-oxa-16λ^6-thia-11,13,14,17,21,27,32-heptaazahexacyclo[24.3.1.1^12,15.1^17,20.0^2,10.0^0,9]dotriaconta-1(29),2,4,9,12,14,26(30),27-octaene-16,16-dioxide] | ≤ 0.5 µM | – |
| O=S1(=O)c2nnc([nH]2)Nc2c(ccc3c2CCC3)-c2ccnc(c2)OCC2CN(C2)C2CCN1CC2 [Example 18, 6-oxa-26λ^6-thia-2,8,21,23,24,27,32-heptaazaheptacyclo-[25.2.2.1^2,4.1^7,11.1^22,25.0^12,20.1^15,19]tetratriaconta-7(33),8,10,12,14,19,22,24-octaene-26,26-dioxide] | ≤ 5 µM | – |
| O=S1(=O)c2nnc([nH]2)Nc2c(ccc3c2CCC3)-c2ccnc(c2)OCCCCN2CCC3(C2)CN1C3 [Example 19, 27-oxa-16λ^6-thia-11,13,14,17,22,29,35-heptaazaheptacyclo-[26.3.1.1^12,15.1^17,19.1^19,22.0^2,10.0^5,9]pentatriaconta-1(31),2,4,9,12,14,28(32),29-octaene-16,16-dioxide] | ≤ 0.5 µM | – |
| O=S1(=O)c2nnc([nH]2)Nc2c(ccc3c2CCC3)-c2ccnc(c2)OCCCN2CCOCC23CCN1CC3 [Example 20] | ≤ 0.5 µM | – |
| CN(C)CC12CCCCOc3cc(ccn3)-c3ccc4c(c3Nc3nnc([nH]3)S(=O)(=O)N(CC1)C2)CCC4 (stereo not shown) [Example 21, 20-[(dimethylamino)methyl]-25-oxa-16λ^6-thia-11,13,14,17,27,32-hexaazahexacyclo[24.3.1.1^12,15.1^17,20.0^2,10.0^5,9]dotriaconta-1(29),2,4,9,12,14,26(30),27-octaene-16,16-dioxide] | ≤ 1 µM | – |
| O=S1(=O)c2nnc([nH]2)Nc2c(ccc3c2CCC3)-c2ccnc(c2)OCCCN2C[C@@H]3C[C@H]2CN31 [Example 22, (19S,21S)-27-oxa-16λ^6-thia-11,13,14,17,23,29,33-heptaazaheptacyclo-[26.3.1.1^12,15.0^2,10.0^5,9.0^17,21.0^19,23]tritriaconta-1(31),2,4,9,12,14,28(32),29-octaene-16,16-dioxide] | ≤ 5 µM | – |
| O=S1(=O)c2nnc([nH]2)Oc2c(ccc3c2CCC3)-c2ccnc(c2)OCCCN2CCC3(C2)CN1C3 [Example 23, 11,26-dioxa-16λ^6-thia-13,14,17,22,28,34-hexaazaheptacyclo-[25.3.1.1^12,15.1^17,19.1^19,22.0^2,10.0^5,9]tetratriaconta-1(30),2,4,9,12,14,27(31),28-octaene-16,16-dioxide] | ≤ 5 µM | – |
| CC(C)c1cc(F)cc2c1Nc1nnc([nH]1)S(=O)(=O)N1CC3(CCN(CCCOc4cc-2ccn4)C3)C1 [Example 24, 4-fluoro-6-(propan-2-yl)-23-oxa-13λ^6-thia-8,10,11,14,19,25,31-heptaazahexacyclo[22.3.1.1^9,12.1^14,16.1^16,19.0^2,7]hentriaconta-1(27),2(7),3,5,9,11,24(28),25-octaene-13,13-dioxide] | ≤ 0.1 µM | – |
